From PubChem BioAssay (NCI)
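Five compound concentrations were applied to cells in 96-well plates for 48 hours; endpoints were derived by simple linear interpolation of the resulting dose-response curve. GI50 is the concentration that inhibits growth by half. The concentration for full growth arrest is given as TGI.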 Where a SMILES comes first, the peptide text is derived from it.

Legend:
Assay in all cases: NCI-60 cell line screen, 48 h
786-0 renal = tested on: 786-0 renal
ACHN renal = tested on: ACHN renal
COLO 205 colon = tested on: COLO 205 colon
HCC-2998 colon = tested on: HCC-2998 colon
M14 melanoma = tested on: M14 melanoma
MCF7 breast = tested on: MCF7 breast
MDA-MB-435 = tested on: MDA-MB-435
OVCAR-8 ovarian = tested on: OVCAR-8 ovarian
SNB-75 CNS = tested on: SNB-75 CNS
LOX IMVI melanoma = tested on: LOX IMVI melanoma
SR leukemia = tested on: SR leukemia

Structure (SMILES) | TGI (786-0 renal) [µM] | TGI (ACHN renal) [µM] | TGI (COLO 205 colon) [µM] | TGI (HCC-2998 colon) [µM] | TGI (M14 melanoma) [µM] | TGI (MCF7 breast) [µM] | TGI (MDA-MB-435) [µM] | TGI (OVCAR-8 ovarian) [µM] | TGI (SNB-75 CNS) [µM] | TGI (LOX IMVI melanoma) [µM] | TGI (SR leukemia) [µM] | GI50 (ACHN renal) [µM] | GI50 (LOX IMVI melanoma) [µM] | GI50 (COLO 205 colon) [µM] | GI50 (HCC-2998 colon) [µM] | GI50 (MCF7 breast) [µM] | GI50 (MDA-MB-435) [µM] | GI50 (OVCAR-8 ovarian) [µM] | GI50 (SNB-75 CNS) [µM] | GI50 (SR leukemia) [µM]
Cc1nc2ncn3c(c-2c1Cc1ccccc1)NC=C(O)N3 | > 100 | > 100 | > 100 | > 100 | > 100 | > 100 | > 100 | > 100 | 67.8 |  |  |  |  |  |  |  |  |  |  | 
COC(=O)C[C@H](COCc1ccccc1)NC(=O)C[C@H](COCc1ccccc1)NC(=O)OC(C)(C)C | 40.8 | > 100 | > 100 |  | > 100 | 51.1 | > 100 | 61.7 | 61.2 | > 100 | > 100 |  |  |  |  |  |  |  |  | 
CCCCCOC(=O)c1cc2cc(CCl)ccc2oc1=O | 18.2 | 8.42 | 16.3 | 28.1 | 34.8 | > 56.9 | 14.9 | > 63 | 31.2 | 34.5 | 67.5 |  |  |  |  |  |  |  |  | 
Cc1cc(=O)[nH]c(/N=C(\N)Nc2ccc(Cl)cc2)n1 | > 100 | > 100 |  | > 100 | > 100 |  | > 100 | > 100 |  | > 100 | > 100 |  |  |  |  |  |  |  |  | 
Nc1ccc(-c2nc3cc(F)ccc3s2)cc1CO | > 100 | > 100 | > 100 | 6.17 | > 100 | 19.7 | > 100 | > 100 | 36.8 | > 100 |  |  |  |  |  |  |  |  |  | 
O=C1/C(=C\c2ccc(F)cc2)CCOc2c1ccc1ccccc21 | 62.5 | > 100 | > 100 | 17.7 | 82.7 | 51.9 | 74.3 | 35.2 | > 66.1 | 38.4 |  | 47.9 | 13 |  |  |  |  |  |  | 
COc1ccc(C(=O)N(C(=O)N2CCN(c3ccccc3)CC2)S(=O)(=O)c2ccccc2)cc1 | 90.5 | 35.2 | 31.8 | > 100 | 42.6 | > 100 | > 100 | 53.5 | 63.8 | 38 | 42.8 |  |  |  |  |  |  |  |  | 
COC(CN(C=O)[C@@H](c1ccc(Cl)cc1)c1cc2ccccc2o1)OC | 51.1 | 41.7 | 33.5 |  | 37.1 | 34.8 | 35.5 | 31.3 | 42.7 | 34.5 |  |  |  |  |  |  |  |  |  | 
Nc1ccc(Oc2ccc(C34CC5CC(C3)CC(c3ccc(Oc6ccc(N)cc6)cc3)(C5)C4)cc2)cc1 | > 52.1 | > 51.4 | > 58.7 | 19.3 | 23.5 | 21.6 | 40.7 | 23.6 | 90.5 | 20.1 | > 100 |  |  |  |  |  |  |  |  | 
O=[N+]([O-])c1ccc2c(c1)nc(Cc1ccc(Cl)cc1)n2C[C@@H]1CCCN2CCCCC12 (some centres not stated) | 24.5 | 29 | 29.2 | 18.8 | 25.9 | 22.5 | 28.3 | 30.4 | 28.3 | 28.7 | > 100 |  |  |  |  |  |  |  |  | 
NC(=S)N1N=C(c2ccccc2O)CC1c1ccccc1 (configuration not stated) | 60 | 61.8 | 26.5 | 27.3 | 24.5 | 20.8 | 20.2 | > 100 | 52.9 | 46.2 |  |  |  |  |  |  |  |  |  | 
CCCN1C(=O)CSC1=Nc1ccc2cc3ccc(N=C4SCC(=O)N4CCC)cc3nc2c1 | 0.0603 | > 100 | > 100 | > 100 |  | > 100 | > 100 | > 100 | > 100 | > 100 | > 100 | 29.6 | > 100 | > 100 | > 100 | 77.6 | > 100 | 50.7 | 22.3 | 98.2
COc1cc([C@@H]2c3cc4c(cc3[C@@H](c3c(O)cc(O)c5c3O[C@H](c3ccc(O)c(O)c3)[C@H](OC(=O)c3cc(O)c(O)c(O)c3)C5)[C@H]3COC(=O)[C@H]23)OCO4)cc(OC)c1OC | > 100 | > 50 | 90 | 71.7 | > 100 | > 100 | 7.23 | > 100 | > 100 | > 100 | 8.14 |  |  |  |  |  |  |  |  | 
Cc1cnoc1NS(=O)(=O)c1ccc(Nc2nnc(/C=C/c3c(O)ccc4ccccc34)c(=O)n2N)cc1 | 77.1 | 55.1 |  |  | 75.7 | 47.5 | 76.3 | > 100 | 77 | 53.9 | 55.6 |  |  |  |  |  |  |  |  | 
COC1CC(CC2CCC(C)C(C(C)C(=O)O)O2)OC2(OC(C)(C3CCC(C)(C4OC(C5OC(O)(CO)C(C)CC5C)CC4C)O3)CC2C)C1C (configuration not stated) | 30.5 | 45.1 | 2.67 | 11.5 | 5.82 | > 27.9 | 11.1 | 41.3 | 8.7 | 9.81 | 1.54 |  |  |  |  |  |  |  |  | 
O=C1CC2(CCC(O)(c3cccs3)C(C(=O)c3cccs3)C2)C(=O)c2ccccc2N1 (configuration not stated) |  |  | > 100 | > 100 | > 100 | > 100 | > 100 | > 100 | > 100 | > 100 | > 100 |  |  |  |  |  |  |  |  | 

Structure (SMILES) | TGI (786-0 renal) [µM] | TGI (ACHN renal) [µM] | TGI (COLO 205 colon) [µM] | TGI (HCC-2998 colon) [µM] | TGI (M14 melanoma) [µM] | TGI (MCF7 breast) [µM] | TGI (MDA-MB-435) [µM] | TGI (OVCAR-8 ovarian) [µM] | TGI (SNB-75 CNS) [µM] | TGI (LOX IMVI melanoma) [µM] | TGI (SR leukemia) [µM] | GI50 (ACHN renal) [µM] | GI50 (LOX IMVI melanoma) [µM] | GI50 (COLO 205 colon) [µM] | GI50 (HCC-2998 colon) [µM] | GI50 (MCF7 breast) [µM] | GI50 (MDA-MB-435) [µM] | GI50 (OVCAR-8 ovarian) [µM] | GI50 (SNB-75 CNS) [µM] | GI50 (SR leukemia) [µM]
COc1ccc(C2c3cc4c(cc3OC(O)(CO)C2C(=O)O)OCO4)cc1 (configuration not stated) (tested in a mixture with another compound) |  |  | > 100 | 38.2 | 29.1 |  |  | 48.5 | 78.3 | 30.1 | 56.2 |  |  |  |  |  |  |  |  | 
COC(OC)C1OC(CO)C(n2cc(F)c(=O)[nH]c2=O)C1O (configuration not stated) |  | > 100 | 28.5 | > 100 | > 100 | > 100 | > 100 | > 100 | > 100 | > 100 |  |  |  |  |  |  |  |  |  | 
CC(=O)c1ccc2c(c1)N(CCCN1CCN(CCO)CC1)c1ccccc1C2 | 31.5 | 34.8 | 31.8 |  | 28.3 |  | 21.7 | 30.7 | 30.5 | 29.6 |  |  |  |  |  |  |  |  |  | 
CC(=O)Oc1ccc(CO)cc1OC(C)=O | > 100 | > 100 | > 100 |  | > 100 |  |  | > 100 | > 100 | > 100 | > 100 |  |  |  |  |  |  |  |  | 
COc1cc2c(cc1OCCCCCCCCN1C(=O)c3cccc4cccc(c34)C1=O)N=C[C@@H]1CCCN1C2=O | > 100 | > 100 | 21.7 | 30.7 | > 100 | 22.3 | 51.7 | 57.8 | 10.3 | 25.5 | 21.7 |  |  |  |  |  |  |  |  | 
O=c1[nH]c(Nc2ccc(Cl)cc2)nc2nc[nH]c12 | > 100 | > 100 | > 100 | > 100 | > 100 | > 100 | > 100 | > 100 | > 100 | > 100 | > 100 |  |  |  |  |  |  |  |  | 
O=C(O)C(O)C(O)C(O)C(=O)CO (configuration not stated) | > 100 | > 100 | > 100 | > 100 | > 100 | > 100 | > 100 | > 100 | > 100 | > 100 | > 100 |  |  |  |  |  |  |  |  | 
COC(=O)C1=C(O)CCCC(CCC(C)=O)=C1 | 77.3 | > 100 | 55.2 | > 100 | > 100 |  | > 100 | > 100 | > 100 | > 100 | 66 |  |  |  |  |  |  |  |  | 
Nc1cc(-c2ccc(Cl)cc2)nn1-c1nc2ccccc2nc1-c1ccccc1 | > 100 | > 100 | > 100 | > 100 | > 100 | > 100 | > 100 | > 100 | 64.9 | > 100 | > 100 |  |  |  |  |  |  |  |  | 
COC(=S)OC1CC(n2cnc3c(N)ncnc32)OC1CO[Si](C)(C)C(C)(C)C (configuration not stated) |  |  | 39.8 |  | 43.3 | 44.8 | 42.1 | 69.5 |  | > 100 | > 100 |  |  |  |  |  |  |  |  | 
N#Cc1c(N)nc2c(c1-c1ccc(Br)cc1)CSc1ccccc1-2 | > 100 |  | 32.2 |  | > 100 | > 100 | 77.3 | > 100 | > 100 | > 100 | > 100 |  |  |  |  |  |  |  |  | 
C1=CC(=[N+]2N=C(c3ccccc3)CC2c2ccccc2)C=CC1=C1SC(c2ccccc2)(c2ccccc2)c2ccccc21 (configuration not stated) | > 100 | > 100 |  | > 100 | > 100 | > 100 | > 100 | > 100 |  |  | > 100 |  |  |  |  |  |  |  |  | 
C/C(N=Nc1nc2ccccc2[nH]1)=C1/C=CC=CN1O | > 100 | > 100 | > 100 | > 100 | > 100 | > 100 | > 100 | > 100 |  | > 100 | > 100 |  |  |  |  |  |  |  |  | 
CCC(C)C(NC(=O)C1CCCN1C(=O)C(CC(C)C)NC(=O)C(CC(C)C)NC(=O)C(N)CC(C)C)C(=O)NC(C(=O)NCC(=O)NC(CC(N)=O)C(=O)NC(CC(C)C)C(=O)NC(CC(C)C)C(=O)NC(CC(C)C)C(N)=O)C(C)C (configuration not stated) (H-LLLPIVGNLLL-NH2; configuration not given here) | > 50 | > 50 | > 50 |  | > 50 | > 50 | > 50 | > 50 |  | > 50 | > 50 |  |  |  |  |  |  |  |  | 
CSCCC(NC(=O)OCc1ccccc1)P(=O)(O)c1ccccc1 (configuration not stated) |  | > 100 | > 100 | > 100 | > 100 | > 100 | > 100 | > 100 | > 100 | > 100 | > 100 |  |  |  |  |  |  |  |  | 
CCOC(=O)C(=O)NCCCN1CCOCC1 |  | > 100 | > 100 | > 100 | > 100 |  |  | > 100 | > 100 | > 100 |  |  |  |  |  |  |  |  |  | 
